Measurements: PubChem BioAssay AID449750 (Broad Institute, 2010)
The source made the active and inactive calls. The rule behind the calls is not given here.

Assay: non-covalent RecA intein splicing inhibitors, dose response, biochemical, cell-free, fluorescence, secondary screen (AID 449750)

| Compound | AC50 |
| --- | --- |
| CCCCOP(=O)(OCCCC)C1(NS(=O)(=O)c2ccccc2)C=CC(=O)c2ccccc21 (configuration not stated) | 9.07 µM |
| Cc1cccc(NC2=C(NC(=O)c3ccccc3)C(=O)c3ccccc3C2=O)c1 | 9.5 µM |
| COc1cc(C(c2c(C)[nH][nH]c2=O)c2c(C)[nH][nH]c2=O)ccc1OS(=O)(=O)c1ccc(C)cc1 | 8.13 µM |
| CC(=O)N(C1=C(N)C(=O)c2ccccc2C1=O)c1ccccc1 | 10.6 µM |
| O=c1[nH]c(Nc2ccccc2)cc2ccccc12 | 1.68 µM |
| O=C(CCl)Nc1c(C(=O)Nc2ccc3c(c2)OCCO3)oc2ccccc12 | 4.49 µM |
| O=C1C(Nc2ccccc2)=C(N2CCCCC2)C(=O)c2ccccc21 | 12.6 µM |
| C/C(=C/CCC(C)[C@H]1CC[C@@]2(C)C3=C(CC[C@]12C)[C@@]1(C)CCC(=O)C(C)(C)[C@@H]1CC3)C(=O)O (some centres not stated) | 10.7 µM |
| COC(CN(C(=O)CCl)C(C(=O)NC1CCCC(C)C1C)c1ccc(C)cc1)OC (configuration not stated) | 10.9 µM |
| Cc1nn(-c2ccccc2)c2c1C(c1ccco1)C(C#N)=C(N)O2 (configuration not stated) | 14 µM |
| O=C(/C=C/c1ccc(O)cc1)c1ccc(NC2=C(N3CCCCC3)C(=O)c3ccccc3C2=O)cc1 | 2.06 µM |
| O=C1C(C2=C(O)c3ccccc3C2=O)=Nc2ccccc21 | 2.98 µM |
| CCS(=O)(=O)c1ncc(Cl)c(C(=O)Nc2ccc(S(=O)(=O)N(C)c3ccccc3)cc2)n1 | 1.66 µM |
| Clc1ncnc2scc(C3COc4ccccc4O3)c12 (configuration not stated) | 7.28 µM |
| O=C(CCl)N1N=C(c2cccs2)CC1c1ccco1 (configuration not stated) | 5.44 µM |
| O=C(CCCN1C(=O)/C(=C/c2ccccc2)SC1=S)Nc1ccc(O)cc1 | > 38 µM (inactive) |
| COc1ccc(CNc2ccc3cn[nH]c3c2)c(OC)c1OC | 14 µM |
| Cc1c(Cl)cccc1NC(=O)CSCc1cc(=O)[nH][nH]1 | 33.3 µM |
| Cc1[nH][nH]c(=O)c1C(c1ccc(O)c(Br)c1)c1c(C)[nH][nH]c1=O | 13.5 µM |
| Cc1ccc(O)c(N=CC2=C(O)c3ccccc3C2=O)c1 | 21.5 µM |
| CC(C)(C)NC(=O)C(c1ccc(Cl)cc1)N(Cc1ccco1)C(=O)CCl (configuration not stated) | 11.6 µM |
| CCOC(=O)c1nnn(-c2nonc2-n2cccc2)c1CCl | 26.6 µM |

| Compound | AC50 |
| --- | --- |
| COC(=O)c1nc(NC(=O)c2ccc(C(C)(C)C)cc2)n[nH]1 | > 38 µM (inactive) |
| CCOC(=O)c1c(C)oc2c1c1c(c3ccccc32)OCN(CCCC(=O)O)C1 | 4.93 µM |
| CC(C)c1[nH]nc2c1C(c1cccs1)C(C#N)=C(N)O2 (configuration not stated) | > 38 µM (inactive) |
| COc1ccc(/C=C/C(=O)c2ccccc2)cc1COc1ccc(F)cc1 | 2.18 µM |
| C=CCn1c(NC(=O)c2ccc(Br)o2)c(S(=O)(=O)c2ccccc2)c2nc3ccccc3nc21 | > 38 µM (inactive) |
| Clc1ccc(CSC(Cn2ccnc2)c2ccc(Cl)cc2Cl)cc1 (configuration not stated) | 8.47 µM |
| c1ccc(-c2nc(N3CCCCCC3)nc(-n3ccnc3)n2)cc1 | > 38 µM (inactive) |
| CCOC(=O)CNc1nnc(SCC(=O)OCC)[nH]c1=O | 10.2 µM |
| Cc1cc(OC(=O)c2ccccc2)n(CCC#N)n1 | 17.7 µM |
| CCCc1nnc(NC(=O)c2nc(S(=O)(=O)Cc3cccc(C)c3)ncc2Cl)s1 | > 38 µM (inactive) |
| Cc1[nH]n(-c2ccccc2)c(=O)c1C(c1ccc(C(=O)O)cc1)c1c(C)[nH]n(-c2ccccc2)c1=O | 2.11 µM |
| Nc1scc2c(C(=O)N/N=C/c3ccc(Cl)cc3)nn(-c3ccccc3)c(=O)c12 | 28.1 µM |
| Cc1nc2ccccc2c2c1C(=O)N(C)C2=O | > 38 µM (inactive) |
| O=S(=O)(O)Oc1c[nH]c2ccccc12 | 5.48 µM |
| CN(CCO)c1cc(Sc2nc3ccccc3s2)c2nonc2c1[N+](=O)[O-] | 7.53 µM |
| O=C(O)c1ccc(NC2=C(Cl)C(=O)c3ccccc3C2=O)cc1 | 3.91 µM |
| O=C(CCl)Nc1cccc(CP(=O)(c2ccccc2)c2ccccc2)c1 | 17.8 µM |
| CCOC(=O)CSc1nnc(NCC(=O)OC(C)C)c(=O)[nH]1 | > 38 µM (inactive) |
| O=C1C(Cl)=C(N2CCCCC2)C(=O)C(Cl)=C1c1cnc(N2CCCCC2)s1 | > 38 µM (inactive) |
| CN(C)CCSc1nnc2[nH]c3ccccc3c2n1 | > 38 µM (inactive) |
| O=c1cc(-c2ccc(C3CCCCC3)cc2)[nH][nH]1 | 7.41 µM |
| O=C(NCc1cccnc1)/C(=C/c1ccc(-c2ccc(Cl)cc2)o1)S(=O)(=O)c1ccccc1 | 32.4 µM |

| Compound | AC50 |
| --- | --- |
| Cc1nn(-c2ccccc2)c2c1C1(C(=O)N3c4c(cccc41)C(C)CC3(C)C)C(C#N)=C(N)O2 (configuration not stated) | 23.9 µM |
| Cc1cc(-c2[nH]nc3c2C(c2ccsc2)C(C#N)=C(N)O3)c(C)s1 (configuration not stated) | 13.6 µM |
| Oc1ccc(N=Cc2sc3ccccc3c2Cl)cc1 | > 38 µM (inactive) |
| COc1ccc(OCc2cc(C(=O)NC3CCOC(C)(C)C3)no2)c2ccccc12 (configuration not stated) | 26 µM |
| C=CS(=O)c1sc(Cl)c(N2CCOCC2)c1[N+](=O)[O-] (configuration not stated) | > 38 µM (inactive) |
| Cc1ccc(C(=O)N/N=C\c2cc(Br)c(Br)o2)cn1 | 15.7 µM |
| Cc1nc2ccccc2c2c1C(=O)N(Cc1cccnc1)C2=O | > 38 µM (inactive) |
| C=C(C)CNC(=S)N=Nc1c(O)[nH]c2ccc([N+](=O)[O-])cc12 | > 38 µM (inactive) |
| OC(COC(c1ccc(Cl)cc1)c1ccc(Cl)cc1)CN1CCc2ccccc2C1 (configuration not stated) | 3.84 µM |
| CC(C)C(=O)N1CCN(c2nc(-c3ccccc3)c3c(c2C#N)CCCC3)CC1 | 9.83 µM |
| CCCCCc1cc(=O)oc2c(C(CCN3CCCC(C)C3)c3ccc4c(c3)OCO4)c(OC)cc(OC)c12 (configuration not stated) | 10.5 µM |
| O=C(c1ccc2nc(Cc3cccc(Cl)c3)oc2c1)N1CCC(O)CC1 | > 38 µM (inactive) |
| CCCCCCn1c(N2CCC(C(N)=O)CC2)nc2c1c(=O)n(C)c(=O)n2C | > 38 µM (inactive) |
| CN1C(=O)/C(=N\OC(=O)c2cccc3ccccc23)c2ccccc21 | > 38 µM (inactive) |
| CC1=NN(c2ccc(S(=O)(=O)O)cc2C)C(=O)C1 | 6.31 µM |
| CCc1nc(N2CCN(C(=O)CCl)CC2)c2c3c(sc2n1)CC(C)CC3 (configuration not stated) | 2 µM |
| Cc1ccc(-n2nc(C)c(NC(=O)CCl)c2C)cc1C | 16.1 µM |
| O=[N+]([O-])c1ccc(Sc2cccc[n+]2[O-])c2nonc12 | 9.27 µM |
| CN1N=C(C(C)(C)C)CC1=O | > 38 µM (inactive) |
| O=S(=O)(c1ccc(Cl)cc1)c1snnc1-c1ccccc1 | > 38 µM (inactive) |
| COc1ccc(NC(=O)/C(Cl)=C(/Cl)S(=O)(=O)Cc2ccc(C)cc2)cn1 | 35.2 µM |
| Cc1ccc(-c2cc(=O)[nH][nH]2)c(C)c1 | 34.3 µM |

| Compound | AC50 |
| --- | --- |
| C=CCOC(=O)C1=C(C)NC(=O)NC1c1ccc(OC(=O)c2ccco2)c(OC)c1 (configuration not stated) | > 38 µM (inactive) |
| COc1ccc(C(=O)NC(=S)NNC(=O)CCc2ccccc2)cc1 | > 38 µM (inactive) |
| O=C(CCN1C(=O)/C(=C/c2cccs2)SC1=S)Nc1ccc(C(=O)O)c(O)c1 | 19 µM |
| CCOc1ccccc1Oc1coc2cc(OC(=O)c3ccco3)ccc2c1=O | > 38 µM (inactive) |
| Cc1ccc(S(=O)(=O)/N=C2\C=C(Nc3cccc(C(=O)O)c3)C(=O)c3ccccc32)c(C)c1 | > 38 µM (inactive) |
| COc1ccccc1/C=C/C1(C(=O)NC2CCCC2)CC(=O)N1c1ccc(F)cc1 (configuration not stated) | 9.42 µM |
| Cc1ccc(S(=O)(=O)N(C(=O)c2ccncc2)c2ccc(OC(=O)c3ccncc3)c3ccccc23)cc1 | 4.13 µM |
| COc1ccc(C2=NN(C(=O)/C=C/c3ccccc3)C(c3ccccc3)C2)c(OC(C)=O)c1 (configuration not stated) | 2.24 µM |
| O=C(c1cc(F)c(F)cc1Cl)N1CCN(c2ccc([N+](=O)[O-])c3ncccc23)CC1 | > 38 µM (inactive) |
| Brc1ccc(Cn2c(-c3ccc(Br)o3)nc3ccccc32)o1 | 23.2 µM |
| CC(=O)Nc1ccc(NC(=O)CSc2ncc(C(=O)Nc3ccccc3)c(=O)n2C)cc1 | 1.04 µM |
| Cc1ccc(S[C@@H](CCN2CC[C@H](C)CCC2=O)c2ccccc2)cc1 | 15.2 µM |
| COc1cc(-n2nc(C)c3c2OC(N)=C(C#N)C3c2ccccc2)c(Cl)c(Br)c1O (configuration not stated) | 16 µM |
| O=C1CCCC2=C1C1(O)C(=O)c3ccccc3C1(O)O2 (configuration not stated) | 7.79 µM |
| COc1ccccc1CN1CCSCC1 | > 38 µM (inactive) |
| CC1CCCC(NC(=O)NC(=O)CCl)C1C (configuration not stated) | 29.3 µM |
| Cc1nc2c(=O)n(C)c(=O)n(C)c2nc1Cl | > 38 µM (inactive) |
| Cc1onc(-c2ccccc2)c1-c1nc2cc(Cl)ccc2c(=O)o1 | > 38 µM (inactive) |
| COc1ccc(CNC(=O)c2nc(S(=O)(=O)Cc3ccccc3)ncc2Cl)cc1 | > 38 µM (inactive) |
| COc1cc(C(c2c(C)[nH][nH]c2=O)c2c(C)[nH][nH]c2=O)cc(Cl)c1O | 2.2 µM |
| CSc1ccc(C(c2c(C)[nH][nH]c2=O)c2c(C)[nH][nH]c2=O)cc1 | 7.2 µM |
| CC(C)NC(=S)NC1(C)CCS(=O)(=O)C1 (configuration not stated) | > 38 µM (inactive) |

| Compound | AC50 |
| --- | --- |
| CC1=NNC(=O)C1Cc1ccccc1C (configuration not stated) | > 38 µM (inactive) |
| COc1ccc(CN(C(=O)CSc2nnc(-c3ccccc3C)o2)c2ccc(F)cc2)cc1 | 21.9 µM |
| CC1=NNC(=O)C1C(c1ccc(F)cc1)C(C#N)C#N (configuration not stated) | > 38 µM (inactive) |
| CCCCCc1cc(=O)oc2c(C(CCN3CCCC(C)C3)c3ccc(OC)cc3)c(OC)cc(OC)c12 (configuration not stated) | 10.1 µM |
| Cc1ccc(-c2cc(-c3ccc(C)cc3)[n+](-c3ccc(C(=O)[O-])cc3)c(-c3ccc(C)cc3)c2)cc1 | 37.5 µM |
| N#CCn1c(CCl)nc2ccccc2c1=O | > 38 µM (inactive) |
| Cc1cc(C(=O)c2ccc(Cl)cc2)c(NC(=O)CCl)s1 | 1.19 µM |
| c1ccc(-c2nnc(-c3ccccn3)nc2NC2CCCCC2)cc1 | 7.98 µM |
| CC(C)(C)c1csc(Sc2ccc([N+](=O)[O-])cn2)n1 | 14.2 µM |
| CCOC(=O)CSCC(=O)N1N=C(c2cccs2)CC1c1ccc(F)cc1 (configuration not stated) | 16.9 µM |
| Cc1cccc(NC(=S)N/N=C2/CCCCc3ccccc32)c1 | > 38 µM (inactive) |
| Oc1ccc(N=Cc2ccc(OCc3ccccc3)cc2)cc1 | > 38 µM (inactive) |
| CCCCCCCCCCOC(=O)Cn1c(COc2ccccc2OC)[n+](C)c2ccccc21 | 7.46 µM |
| COC(=O)C1=C(C)NC(=S)NC1c1ccc(OC(=O)c2ccco2)cc1 (configuration not stated) | > 38 µM (inactive) |
| CCOC(=O)c1nn(-c2ccc(C)cc2)c(=O)c2c(N)scc12 | > 38 µM (inactive) |
| O=C(CCl)Nc1ccc(N=Nc2ccccc2)cc1 | 4.64 µM |
| O=C(CN1C(=O)S/C(=C\C=C\c2ccccc2)C1=O)Nc1ccc(C(=O)O)cc1 | 29.6 µM |
| O=C(CCl)N(CCc1ccccc1)CCc1ccccc1 | 3.25 µM |
| CCc1ccccc1N1C(=O)C(Cl)=C(N2CCOCC2)C1=O | > 38 µM (inactive) |
